Reference: US20080249043A1, “Methods and Compositions Involving Protein Kinase C-Delta” (priority 2004, published 2008)

System: HeLa cells
Assay: CL distribution in mitochondria by NAO staining and flow cytometry in HeLa cells
Assay type: cell-based
Conditions: 5 μM AD198 4 h
Method: (a) HeLa cells were treated with 5 μM AD198 or DMSO as control for 4 h. Cells were stained with different concentrations of NAO and the median fluorescent intensity was determined by flow cytometry. (b) The median fluorescent intensity value of control cells stained with 35 μM NAO was considered as 100% and used to calculate the percentages in each NAO concentration. Results were average of two independent experiments. (c) After transfection for 48 h, HeLa-control, HeLa-PLS3 and HeLa-PLS3(T21D) cells were stained with different concentrations of NAO and the median fluorescent intensity was determined by flow cytometry. The median fluorescent intensity value of 35 μM NAO was considered as 100% and used to calculate the percentage in each NAO concentration. Results were average of two independent experiments.
Analysis of CL distribution in the mitochondria outer membrane—NAO was used to determine the distribution of CL in mitochondria (Garcia Fernandez, et al. Anal Biochem 328:174-180 (2004)). When NAO binds CL at 2:1 ratio (in the saturated state), fluorescence emission occurs at 630 nm. When cells were incubated with increasing concentrations of NAO, NAO saturates CL in the outer member first and then the inner member of mitochondria. Lower concentrations of NAO (2.5-12 μM) were used to saturate CL in the mitochondrial outer member and to measure the amount of CL in that compartment. […]

CCCCC(=O)OCC(=O)[C@]1(O)Cc2c(O)c3c(c(O)c2[C@@H](O[C@H]2C[C@H](NCc4ccccc4)[C@H](O)[C@H](C)O2)C1)C(=O)c1c(OC)cccc1C3=O [AD198, N-benzyladriamycin-14-valerate]
absolute NAO fluorescence (amount of CL) (HeLa cells): decrease in absolute NAO fluorescence | percentage of CL in the outer membrane (NAO concentrations lower than 9 μM): higher percentage of CL than control cells
